Tests used:
[1] = target: T1, Thrombopoietin receptor (Homo sapiens, UniProt P40238); assay: Agonist activity at human thrombopoietin receptor in Ba/F3 cells assessed as activation of Stat5 response element-driven reporter gene expression; type: functional, cell-based, BaF3
T1 sequence (P40238 whole entry): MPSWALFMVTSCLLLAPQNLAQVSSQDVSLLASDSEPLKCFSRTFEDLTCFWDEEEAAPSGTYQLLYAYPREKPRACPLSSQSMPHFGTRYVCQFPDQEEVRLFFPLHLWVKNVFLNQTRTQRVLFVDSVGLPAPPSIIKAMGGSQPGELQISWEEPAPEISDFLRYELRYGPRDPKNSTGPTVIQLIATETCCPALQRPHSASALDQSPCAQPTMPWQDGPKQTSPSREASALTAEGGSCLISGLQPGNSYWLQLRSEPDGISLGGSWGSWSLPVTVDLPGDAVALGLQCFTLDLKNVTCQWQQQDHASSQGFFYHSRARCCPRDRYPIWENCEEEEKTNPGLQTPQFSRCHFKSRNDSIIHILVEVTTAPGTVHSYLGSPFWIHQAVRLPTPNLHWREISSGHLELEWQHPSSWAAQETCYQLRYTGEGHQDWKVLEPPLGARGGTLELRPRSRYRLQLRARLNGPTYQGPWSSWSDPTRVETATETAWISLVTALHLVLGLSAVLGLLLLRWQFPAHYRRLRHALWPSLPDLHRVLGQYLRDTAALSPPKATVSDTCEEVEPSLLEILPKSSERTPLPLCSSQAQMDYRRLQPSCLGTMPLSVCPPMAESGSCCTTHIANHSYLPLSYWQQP

[2] = target: T2, Thrombopoietin receptor (Homo sapiens) (UniProt P40238); assay: Agonist activity at human thrombopoietin receptor in Ba/F3 cells assessed as activation of Stat5 response element-driven reporter gene expression relative to 30 ng/mL thrombopoietin; type: functional, cell-based; details: BaF3
T2 sequence (whole entry): T1 sequence (P40238 whole entry)

[3] = Cmax in BALB/c mouse at 20 mg/kg, po; type: ADME, organism-based; parameters: dose 20 mg/kg, route oral; details: in vivo
[4] = Bioavailability in BALB/c mouse at 20 mg/kg, po; type: ADME, organism-based; details: in vivo
[5] = Half life in BALB/c mouse at 20 mg/kg, po; type: ADME, organism-based; parameters: dose 20 mg/kg, route oral; details: in vivo

Row | SMILES | EC50 [1] | Efficacy [2] | Cmax [3] | bioavailability [4] | half-life [5]
1 | Cc1cccc(C)c1-c1ccc2c3c([nH]c2c1)-c1cc(O)c(C(=O)O)cc1CC3 | 232 nM | 30% |  |  | 
2 | O=C(O)c1cc2c(cc1O)-c1[nH]c3cc(-c4ccccc4)ccc3c1CC2 | 373 nM | 136% |  |  | 
3 | Cc1cc(C)cc(-c2ccc3c4c([nH]c3c2)-c2cc(O)c(C(=O)O)cc2CC4)c1 | 67 nM | 128% | 2000 nM | 10% | 4.1 h
4 | O=C(O)c1cc2c(cc1O)-c1[nH]c3ccc(-c4ccccc4)cc3c1CC2 | 569 nM | 68% |  |  | 
5 | CCCOc1cccc(-c2ccc3c4c([nH]c3c2)-c2cc(O)c(C(=O)O)cc2CC4)c1 | 43 nM | 147% |  |  | 
6 | Cc1ccc(-c2ccc3c4c([nH]c3c2)-c2cc(O)c(C(=O)O)cc2CC4)cc1 | 109 nM | 154% |  |  | 
7 | COC(=O)c1cc2ccc3c4ccccc4[nH]c3c2cc1O | 1300 nM | 11% |  |  | 
8 | O=C(O)c1cc2c(cc1O)-c1[nH]c3cccc(-c4ccccc4)c3c1CC2 | > 30000 nM |  |  |  | 
9 | Cn1c2ccccc2c2ccc3cc(C(=O)O)c(O)cc3c21 | > 30000 nM |  |  |  | 
10 | O=C(O)c1cc2ccc3c4ccc(C(F)(F)F)cc4[nH]c3c2cc1O | 143 nM | 128% |  |  | 
11 | N#Cc1ccc2[nH]c3c(c2c1)CCc1cc(C(=O)O)c(O)cc1-3 | > 30000 nM |  |  |  | 
12 | O=C(O)c1cc2c(cc1O)-c1[nH]c3ccc(C(F)(F)F)cc3c1CC2 | 333 nM | 115% |  |  | 
13 | Cc1cc(-c2ccc3c4c([nH]c3c2F)-c2ccc(C3=NCCN3)cc2CC4)ccc1F | > 30000 nM |  |  |  | 
14 | CN(C)c1ccc(-c2ccc3c4c([nH]c3c2)-c2cc(O)c(C(=O)O)cc2CC4)cc1 | 284 nM | 136% |  |  | 
15 | Cc1cc(-c2ccc3c4c([nH]c3c2)-c2cc(O)c(C(=O)O)cc2CC4)ccc1F | 35 nM | 126% |  |  | 
16 | O=C(O)c1cc2c(cc1O)-c1[nH]c3cc(C(F)(F)F)ccc3c1CC2 | 473 nM | 96% |  |  | 
17 | Cc1ccc(-c2ccc3c4c([nH]c3c2)-c2cc(O)c(C(=O)O)cc2CC4)cc1C | 65 nM | 127% |  |  | 
18 | O=C(O)c1cc2ccc3c4ccccc4[nH]c3c2cc1O | 3400 nM | 100% |  |  | 

Row | SMILES | EC50 [1] | Efficacy [2] | Cmax [3] | bioavailability [4] | half-life [5]
19 | CCCOc1ccc(-c2ccc3c4c([nH]c3c2)-c2cc(O)c(C(=O)O)cc2CC4)cc1 | 41 nM | 129% |  |  | 
20 | CCCCc1ccc(-c2ccc3c4c([nH]c3c2F)-c2ccc(C(=O)O)cc2CC4)cc1 | 55 nM | 140% |  |  | 
21 | O=C(O)c1ccc2c3c([nH]c2c1)-c1cc(O)c(C(=O)O)cc1CC3 | 7790 nM | 74% |  |  | 
22 | O=C(O)c1cc2c(cc1O)-c1[nH]c3c(F)ccc(C(F)(F)F)c3c1CC2 | 799 nM | 101% |  |  | 
23 | Cc1cccc(-c2ccc3c4c([nH]c3c2)-c2cc(O)c(C(=O)O)cc2CC4)c1 | 194 nM | 128% |  |  | 
24 | CCCCc1ccc(-c2ccc3c4c([nH]c3c2)-c2ccc(C(N)=O)cc2CC4)cc1 | 76 nM | 111% |  |  | 
25 | CCCCc1ccc(-c2ccc3c4c([nH]c3c2)-c2ccc(-c3nnn[nH]3)cc2CC4)cc1 | 119 nM | 128% |  |  | 
26 | OCc1cc2ccc3c4ccccc4[nH]c3c2cc1O | > 30000 nM |  |  |  | 
27 | CCCCc1ccc(-c2ccc3c4c([nH]c3c2)-c2ccc(C(=O)O)cc2CC4)cc1 |  | 141% |  |  | 
28 | COc1cc2c(ccc3c4ccccc4[nH]c23)cc1C(=O)O | > 30000 nM |  |  |  | 
29 | O=C(O)c1cc2c(cc1O)-c1[nH]c3cc(C4CCCCC4)ccc3c1CC2 | > 30000 nM |  |  |  | 
30 | CCCCc1ccc(-c2ccc3c4c([nH]c3c2)-c2ccc(C(=O)N(C)C)cc2CC4)cc1 | 127 nM | 132% |  |  | 
31 | Cc1ccc2c(c1)[nH]c1c3cc(O)c(CC(=O)O)cc3ccc21 | 9200 nM | 70% |  |  | 
32 | CCCCc1ccc(-c2ccc3c4c([nH]c3c2)-c2cc(O)c(C(=O)O)cc2CC4)cc1 | 26 nM | 143% |  |  | 
33 | Cc1ccc2c(c1)[nH]c1c3cc(O)c(C(=O)O)cc3ccc21 | 870 nM | 76% |  |  | 
34 | O=C(O)c1cc2c(cc1O)-c1[nH]c3c(C(F)(F)F)cccc3c1CC2 | 7830 nM | 37% |  |  | 
35 | O=C(O)c1cc2c(cc1O)-c1[nH]c3cc(-c4cccc(C(F)(F)F)c4)ccc3c1CC2 | 148 nM | 127% |  |  | 
36 | COCc1ccc(-c2ccc3c4c([nH]c3c2)-c2cc(O)c(C(=O)O)cc2CC4)cc1 | 452 nM | 132% |  |  | 
